Data from patent US20250223306A1, “TEAD INHIBITORS AND METHODS OF USE” (Sporos BioDiscovery, Inc., priority 2022, published 2025).

Legend:
TEAD2 = TEAD2 (Homo sapiens, UniProt Q15562); experiment: TEAD thermal shift assay (TSA); format: binding
Source text: (§1) Thermal shift assay (TSA) is a biophysical method to evaluate stability of proteins with change in temperature. The assay measures thermal denaturation temperature in varying conditions such as different drug concentration. For this example, fluorogenic dye was used that bind to unfolded proteins. SYPRO Orange binds non-specifically to hydrophobic surfaces, and water strongly quenches its fluorescence. When the protein unfolds, the exposed hydrophobic surfaces bind the dye, resulting in an increase in fluorescence by excluding water. Detergent micelles also bind the dye and increase background noise dramatically. Binding of small molecules to proteins leads to a stabilization against to thermal denaturation with the degree of thermal stabilization proportional to the strength of binding.
(§2) The study described in this example investigated the change in melting temperature (ΔTm) of TEAD isoforms 1˜4 when treated with TEAD inhibitors. Compound 1-1-a known strong TEAD1 and weak TEAD2 inhibitor; as well as Compound 1-4-a pan-TEAD inhibitor were used as controls.
(§3) Tris-HCL was dissolved in 5 mL of Cell culture grade water and allowed to dissolve completely. The pH was adjusted to 8 using NaOH. Additional assay buffer components were added in the order listed above. The buffer was mixed slowly.
(§4) Assay buffer was prepared according to the procedures outlined above and dispensed into test wells. Spyro orange was added to a concentration of 5× in the assay buffer, followed by test compound stock solution which was added to a concentration of 10 μM or 30 μM in the assay buffer.
(§5) The melt cycle was performed in Bio-RAD PCR instrument from 20-95° C. with ramp rate of 1° C./min.

TEAD4 = TEAD4 (Homo sapiens, UniProt Q15561); experiment: TEAD thermal shift assay (TSA); format: binding
Chain of TEAD4 (Q15561 whole entry): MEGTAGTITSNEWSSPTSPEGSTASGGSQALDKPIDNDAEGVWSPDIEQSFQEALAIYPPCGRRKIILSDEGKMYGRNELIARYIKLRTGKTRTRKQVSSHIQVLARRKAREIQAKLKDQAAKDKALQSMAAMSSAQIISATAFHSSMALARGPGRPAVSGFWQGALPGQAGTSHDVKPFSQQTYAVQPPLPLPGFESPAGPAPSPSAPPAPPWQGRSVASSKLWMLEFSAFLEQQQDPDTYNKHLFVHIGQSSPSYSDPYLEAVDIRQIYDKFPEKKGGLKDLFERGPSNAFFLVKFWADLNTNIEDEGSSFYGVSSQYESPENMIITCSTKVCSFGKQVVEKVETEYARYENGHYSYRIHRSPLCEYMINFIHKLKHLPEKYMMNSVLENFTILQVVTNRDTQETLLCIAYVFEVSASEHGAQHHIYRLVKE
Source text: as §1, §2, §3, §4, §5

TEAD1 = TEAD1 (Homo sapiens, UniProt P28347); experiment: TEAD thermal shift assay (TSA); format: binding
Chain of TEAD1 (P28347 whole entry): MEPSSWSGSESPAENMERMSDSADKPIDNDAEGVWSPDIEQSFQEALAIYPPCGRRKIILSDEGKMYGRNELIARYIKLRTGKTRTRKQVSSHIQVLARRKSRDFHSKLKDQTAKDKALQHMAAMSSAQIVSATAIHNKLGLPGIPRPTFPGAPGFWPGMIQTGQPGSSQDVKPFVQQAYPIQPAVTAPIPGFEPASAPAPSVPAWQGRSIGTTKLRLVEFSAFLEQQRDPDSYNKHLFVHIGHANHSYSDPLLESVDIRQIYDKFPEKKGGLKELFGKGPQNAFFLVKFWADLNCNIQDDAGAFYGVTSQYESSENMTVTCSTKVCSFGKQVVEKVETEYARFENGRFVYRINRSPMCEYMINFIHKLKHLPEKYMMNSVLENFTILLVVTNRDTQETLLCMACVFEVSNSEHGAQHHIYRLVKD
Source text: as §1, §2, §3, §4, §5

TEAD3 = TEAD3 (Homo sapiens, UniProt Q99594); experiment: TEAD thermal shift assay (TSA); format: binding
Chain of TEAD3 (Q99594 whole entry): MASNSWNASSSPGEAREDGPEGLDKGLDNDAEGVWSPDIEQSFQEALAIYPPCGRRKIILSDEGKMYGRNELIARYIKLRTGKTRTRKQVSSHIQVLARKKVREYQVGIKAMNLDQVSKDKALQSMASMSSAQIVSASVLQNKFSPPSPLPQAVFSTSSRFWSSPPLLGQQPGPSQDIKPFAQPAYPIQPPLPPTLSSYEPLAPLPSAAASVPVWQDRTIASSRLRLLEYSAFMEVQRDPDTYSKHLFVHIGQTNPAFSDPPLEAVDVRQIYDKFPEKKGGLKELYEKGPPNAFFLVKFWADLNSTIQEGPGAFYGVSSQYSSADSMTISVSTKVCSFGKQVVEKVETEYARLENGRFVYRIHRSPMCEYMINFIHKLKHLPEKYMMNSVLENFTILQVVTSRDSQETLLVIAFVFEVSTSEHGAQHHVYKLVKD
Source text: as §1, §2, §3, §4, §5

SDM103T2 cells = experiment: SDM103T2 proliferation and cell viability assay (CTG); format: cell-based; conditions: SDM103T2 cell line, 144 hours
Description: SDM103T2 cells were trypsinised, counted and plated at the specified cell density in 200 μl of growth media in 96 well flat bottom tissue culture treated plates. The plated cells were incubated overnight at 37° C., 5% CO2 before being treated with compounds in triplicate for each assay point. 50 μl of the serially diluted compound was added to each well giving a final DMSO concentration of 0.5% per well and a total volume of 250 μl per well. The treated cells were incubated for 144 hours (6 days) at 37° C., 5% CO2. Following compound treatment the remaining viable cells were detected using the Promega CellTiter-Glo 2.0 assay as follows: 150 μl of media was removed from each of the wells to be assayed and 100 μl of room temperature CellTiter-Glo 2.0 reagent was added. The plate was placed on an orbital shaker at 500 rpm at room temperature for 2 minutes, and then incubated without shaking for a further 10 minutes at room temperature. 150 μl of cell lysate was removed from each well and dispensed into a single well of a white opaque 96 well plate. Luminescence at 545 nm was read using a BMG CLARIOstar plate reader. The luminescent signal was directly proportional to number of viable cells, the percent of viable cells relative to the DMSO control was then calculated for each assay point. Percent viability relative to DMSO control was plotted against compound concentration and a curve fitted with non-linear regression in GraphPad Prism software. EC50 and IC50 values were calculated using GraphPad Prism software as follows: For EC50 values a non-constrained four-parameter logistic curve fit was used (Sigmoidal, 4PL, X is concentration). For Absolute IC50 values the baseline was constrained to Y=0 (Absolute IC50, X is concentration). Area Under the Curve (AUC): Prism computes area-under-the-curve by the trapezoidal method. The analysis sees a fitted curve as simply a series of connected XY points. Prism simply computes the area under the “curve” defined by connecting the points by straight lines. The units of the AUC are the units of the Y axis times units of the X axis.

MSTO-211H cells = experiment: MSTO-211H proliferation and cell viability assay (CTG); format: cell-based; conditions: Homo sapiens, MSTO-211H cell line, 144 hours
Description: MSTO-211H cells were trypsinised, counted and plated at the specified cell density in 200 μl of growth media in 96 well flat bottom tissue culture treated plates. The plated cells were incubated overnight at 37° C., 5% CO2 before being treated with compounds in triplicate for each assay point. 50 μl of the serially diluted compound was added to each well giving a final DMSO concentration of 0.5% per well and a total volume of 250 μl per well. The treated cells were incubated for 144 hours (6 days) at 37° C., 5% CO2. Following compound treatment, the remaining viable cells were detected using the Promega CellTiter-Glo 2.0 assay as follows: 150 μl of media was removed from each of the wells to be assayed and 100 μl of room temperature CellTiter-Glo 2.0 reagent was added. The plate was placed on an orbital shaker at 500 rpm at room temperature for 2 minutes, and then incubated without shaking for a further 10 minutes at room temperature. 150 μl of cell lysate was removed from each well and dispensed into a single well of a white opaque 96 well plate. Luminescence at 545 nm is read using a BMG CLARIOstar plate reader. The luminescent signal was directly proportional to number of viable cells, the percent of viable cells relative to the DMSO control was then calculated for each assay point. Percent viability relative to DMSO control was plotted against compound concentration and a curve fitted with non-linear regression in GraphPad Prism software. IC50 values were calculated using GraphPad Prism software as follows: For Relative IC50 values a non-constrained four-parameter logistic curve fit was used (Sigmoidal, 4PL, X is concentration). For Absolute IC50 values the baseline was constrained to Y=0 (Absolute IC50, X is concentration). Area Under the Curve (AUC): Prism computes area-under-the-curve by the trapezoidal method. The analysis sees a fitted curve as simply a series of connected XY points. Prism simply computes the area under the “curve” defined by connecting the points by straight lines. The units of the AUC are the units of the Y axis times units of the X axis.

[1] = ratio of protein to compound 1:1
[2] = ratio of protein to compound 1:3

Chain of TEAD2 (Q15562 whole entry): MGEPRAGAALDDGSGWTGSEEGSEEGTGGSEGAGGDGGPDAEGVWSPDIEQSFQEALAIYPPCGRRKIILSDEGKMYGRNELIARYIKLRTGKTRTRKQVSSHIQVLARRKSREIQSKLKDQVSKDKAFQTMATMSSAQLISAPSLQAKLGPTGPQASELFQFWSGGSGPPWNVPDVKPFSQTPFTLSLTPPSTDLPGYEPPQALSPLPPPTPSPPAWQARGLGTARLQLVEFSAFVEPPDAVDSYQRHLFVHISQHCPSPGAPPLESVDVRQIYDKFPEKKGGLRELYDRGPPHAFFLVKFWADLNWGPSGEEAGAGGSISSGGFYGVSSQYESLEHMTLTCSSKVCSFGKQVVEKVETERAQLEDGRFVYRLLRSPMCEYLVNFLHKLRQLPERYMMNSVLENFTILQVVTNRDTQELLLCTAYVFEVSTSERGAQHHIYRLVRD

| Structure (SMILES) | TEAD2 ΔTm (TEAD2; [1]) [°C] | TEAD2 ΔTm (TEAD2; [2]) [°C] | TEAD4 ΔTm (TEAD4; [1]) [°C] | TEAD4 ΔTm (TEAD4; [2]) [°C] | TEAD1 ΔTm (TEAD1; [1]) [°C] | TEAD1 ΔTm (TEAD1; [2]) [°C] | TEAD3 ΔTm (TEAD3; [1]) [°C] | TEAD3 ΔTm (TEAD3; [2]) [°C] | EC50 (SDM103T2 cells) [nM] | EC50 (MSTO-211H cells) [nM] |
| --- | --- | --- | --- | --- | --- | --- | --- | --- | --- | --- |
| COc1cc(C2=CCC(C(F)(F)F)CC2)c2ncc(C(=O)N[C@H](C)CO)cc2c1 (stereo partly drawn) [Compound 110, N—((R)-1-hydroxypropan-2-yl)-6-methoxy-8-(4-(trifluoromethyl)cyclohex-1-en-1-yl)quinoline-3-carboxamide] | 2 | 3 | 2 | 3 | 14 | 16 | 2 | 3 | < 200 | < 200 |
| C[C@@H](NC(=O)c1cnc2c(C3=CCC4(CC3)CC4)cccc2c1)c1ncco1 [Compound 166, (R)—N-(1-(oxazol-2-yl)ethyl)-8-(spiro[2.5]oct-5-en-6-yl)quinoline-3-carboxamide] | – | – | – | – | – | – | – | – | < 200 | < 200 |
| COC[C@H](CO)NC(=O)c1cnc2c(C3=CCC(C(F)(F)F)CC3)cccc2c1 (stereo partly drawn) [Compound 62, N—((S)-1-hydroxy-3-methoxypropan-2-yl)-8-(4-(trifluoromethyl)cyclohex-1-en-1-yl)quinoline-3-carboxamide] | 3 | 3 | 2 | 3 | 9 | 11 | 1 | 2 | < 200 | < 200 |
| O=C(NCc1ncco1)c1cnc2c(C3=CCC(C(F)(F)F)CC3)cccc2c1 (stereo not shown) [Compound 11, N-(oxazol-2-ylmethyl)-8-(4-(trifluoromethyl)cyclohex-1-en-1-yl)quinoline-3-carboxamide] | 3 | 3 | 1.5 | 2.5 | 11 | 11.5 | 3.5 | 3 | < 200 | < 200 |
| C[C@H](CO)NC(=O)c1cnc2c(C3=CCC4(CC3)CC(F)(F)C4)cccc2c1 [Compound 165, (R)-8-(2,2-difluorospiro[3.5]non-6-en-7-yl)-N-(1-hydroxypropan-2-yl)quinoline-3-carboxamide] | – | – | – | – | – | – | – | – | < 200 | < 200 |
| C[C@H](NC(=O)c1cnc2c(C3=CCC(C(F)(F)F)CC3)cccc2c1)c1ccccn1 (stereo partly drawn) [Compound 2, N—((S)-1-(pyridin-2-yl)ethyl)-8-(4-(trifluoromethyl)cyclohex-1-en-1-yl)quinoline-3-carboxamide] | 1 | 1.5 | 2 | 4 | 10 | 12 | 2 | 3 | – | – |
| FC(F)(F)c1ccc(CN2CCC(C3CC(Br)=NO3)CC2)cc1 (stereo not shown) [Compound 1-2, reference compound] | – | – | – | – | – | – | – | – | > 1000 | < 200 |
| COc1cc(C2=CCC(C(F)(F)F)CC2)c2ncc(C(=O)N[C@H](C)c3ncco3)cc2c1 (stereo partly drawn) [Compound 109, 6-methoxy-N—((R)-1-(oxazol-2-yl)ethyl)-8-(4-(trifluoromethyl)cyclohex-1-en-1-yl)quinoline-3-carboxamide] | 3 | 2 | 1 | 2 | 13 | 14 | 2 | 3 | < 200 | < 200 |
| C=CC(=O)Nc1ccc(C)c(Oc2ccc(Cl)cc2)c1 [Compound 1-3, reference compound] | – | – | – | – | – | – | – | – | < 200 | < 200 |

Second part, led by results:

| TEAD2 ΔTm (TEAD2; [1]) [°C] | TEAD2 ΔTm (TEAD2; [2]) [°C] | TEAD4 ΔTm (TEAD4; [1]) [°C] | TEAD4 ΔTm (TEAD4; [2]) [°C] | TEAD1 ΔTm (TEAD1; [1]) [°C] | TEAD1 ΔTm (TEAD1; [2]) [°C] | TEAD3 ΔTm (TEAD3; [1]) [°C] | TEAD3 ΔTm (TEAD3; [2]) [°C] | Structure (SMILES) | EC50 (SDM103T2 cells) [nM] | EC50 (MSTO-211H cells) [nM] |
| --- | --- | --- | --- | --- | --- | --- | --- | --- | --- | --- |
| 1 | 3 | 1.5 | 3 | 10 | 13 | 2 | 4.5 | C[C@H](NC(=O)c1cnc2c(C3=CC[C@@H](C(F)(F)F)CC3)cccc2c1)c1ncco1 (single isomer, unassigned) [Compound 20, N-(1-(oxazol-2-yl)ethyl)-8-(4-(trifluoromethyl)cyclohex-1-en-1-yl)quinoline-3-carboxamide] | – | – |
| 2 | 2 | 3 | 3 | 9 | 11 | 2 | 3 | O=C(NCc1ccn[nH]1)c1cnc2c(C3=CCC(C(F)(F)F)CC3)cccc2c1 (stereo not shown) [Compound 47, N-((1H-pyrazol-5-yl)methyl)-8-(4-(trifluoromethyl)cyclohex-1-en-1-yl)quinoline-3-carboxamide] | < 200 | < 200 |
| 2 | 3 | 2 | 3 | 12 | 12 | 2 | 4 | C[C@H](NC(=O)c1cnc2c(C3=CC[C@@H](C(F)(F)F)CC3)cccc2c1)c1ncco1 (single isomer, unassigned) [Compound 19, N-(1-(oxazol-2-yl)ethyl)-8-(4-(trifluoromethyl)cyclohex-1-en-1-yl)quinoline-3-carboxamide] | < 200 | < 200 |
| 2 | 3 | 1.5 | 3 | 9 | 11 | 2 | 2 | C[C@H](CO)NC(=O)c1cnc2c(C3=CCC(C(F)(F)F)CC3)cccc2c1 (stereo partly drawn) [Compound 7, N—((R)-1-hydroxypropan-2-yl)-8-(4-(trifluoromethyl)cyclohex-1-en-1-yl)quinoline-3-carboxamide] | < 200 | < 200 |
